“And” between values parts separate entries of the source, which are not always exact repeats. Equal entries are not always repeated.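 Exposure lasted 48 hours, with cells grown in 96-well plates and compounds tested at five concentrations. At the GI50, growth is halved. TGI: concentration producing complete growth inhibition.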
What was measured:
Experiment in all cases: NCI tumour cell line growth inhibition, 48 h
DMS 114 small cell lung = test system: DMS 114 small cell lung
SNB-78 CNS = test system: SNB-78 CNS
DMS 273 small cell lung = test system: DMS 273 small cell lung
M19-MEL melanoma = test system: M19-MEL melanoma
P388 leukemia = test system: P388 leukemia
HOP-18 NSCLC = test system: HOP-18 NSCLC
SN12K1 renal = test system: SN12K1 renal
KM20L2 colon = test system: KM20L2 colon
P388/ADR leukemia = test system: P388/ADR leukemia
XF 498 CNS = test system: XF 498 CNS
LXFL 529 NSCLC = test system: LXFL 529 NSCLC
RXF-631 renal = test system: RXF-631 renal

| Compound | TGI (DMS 114 small cell lung) | TGI (SNB-78 CNS) | TGI (DMS 273 small cell lung) | TGI (M19-MEL melanoma) | GI50 (P388 leukemia) | TGI (P388 leukemia) | GI50 (SNB-78 CNS) | GI50 (HOP-18 NSCLC) | TGI (HOP-18 NSCLC) | GI50 (SN12K1 renal) | TGI (SN12K1 renal) | GI50 (KM20L2 colon) | TGI (KM20L2 colon) | GI50 (M19-MEL melanoma) | GI50 (P388/ADR leukemia) | TGI (P388/ADR leukemia) | GI50 (DMS 273 small cell lung) | TGI (XF 498 CNS) | TGI (LXFL 529 NSCLC) | TGI (RXF-631 renal) |
| --- | --- | --- | --- | --- | --- | --- | --- | --- | --- | --- | --- | --- | --- | --- | --- | --- | --- | --- | --- | --- |
| Cc1nc2c(n1-c1ccccc1)C(=O)c1ccccc1C2=O | 61.3 µM | > 100 µM | > 100 µM | 40.4 µM |  |  |  |  |  |  |  |  |  |  |  |  |  |  |  |  |
| CS(=O)(=O)[O-].CS(=O)(=O)[O-].NC1CCCCC1N.[Pt+4] (configuration not stated) |  | > 100 µM |  | > 100 µM | 4.81 µM | > 55.7 µM | > 100 µM | > 100 µM | > 100 µM | > 100 µM | > 100 µM | > 51.3 µM | > 100 µM | 34.2 µM | 43 µM | > 100 µM |  |  |  |  |
| CCC1(OC(=O)CN)C(=O)OCc2c1cc1n(c2=O)Cc2cc3cc4c(cc3nc2-1)OCO4 (configuration not stated) |  | 81.8 µM | 0.0656 µM and 0.358 µM | 1.04 µM and 0.416 µM |  |  | 0.468 µM | 0.166 µM and 0.0534 µM | 2.63 µM and 2.24 µM | < 0.01 µM | 0.225 µM and 1.04 µM |  |  |  | < 0.01 µM | < 0.01 µM | < 0.01 µM |  |  |  |
| Cn1c(=O)n(CC2CS2)c2ccccc21 (configuration not stated) | > 100 µM |  | > 100 µM | > 100 µM |  |  |  |  |  |  |  |  | > 100 µM |  |  |  |  | > 100 µM | > 100 µM |  |
| O=C1C(Cl)=C(c2ccc([N+](=O)[O-])cc2)C(=O)c2c(O)cccc21 | 0.786 µM |  | > 100 µM | 3.52 µM |  |  |  |  | 2.04 µM |  |  |  |  |  |  |  |  | 1.95 µM | 0.94 µM |  |
| O=C(O)Cc1ccccc1CCc1ccccc1Cl |  | > 100 µM | > 100 µM | > 100 µM |  |  |  |  | > 100 µM |  |  |  | > 100 µM |  |  |  |  | > 100 µM | > 100 µM |  |
| C[C@]12CCC(=O)C=C1CC[C@@H]1[C@@H]2[C@@H](O)C[C@@]2(C)[C@H]1CC[C@]2(O)C(=O)COC(=O)CCC1CCCC1 | > 100 µM | > 100 µM | > 100 µM | > 100 µM |  |  |  |  |  |  |  |  | > 100 µM |  |  |  |  | > 100 µM | > 100 µM |  |
| CCCCCCCCCCCCCCCCCCNC(=O)OCC(CNS(=O)(=O)CCC[n+]1cccc2ccccc21)COC (configuration not stated) |  | 7.92 µM |  |  |  |  |  |  | 15.4 µM |  |  |  | 2.15 µM |  |  |  |  |  |  |  |
| CCN(CC)/[N+]([O-])=N/O |  | > 100 µM | > 100 µM | > 100 µM |  |  |  |  |  |  |  |  | > 100 µM |  |  |  |  | > 100 µM | > 100 µM | > 100 µM |
| O=c1c(O)cccn1C1OC(CO)C(O)C1O (configuration not stated) | > 100 µM | > 100 µM | > 100 µM |  |  |  |  |  | > 100 µM |  |  |  | > 100 µM |  |  |  |  |  | > 100 µM | > 100 µM |

— PubChem BioAssay (NCI)
